Test results as given in ChEMBL document CHEMBL5033996, “Design, Synthesis, and Bioactivity Evaluation of Dual-Target Inhibitors of Tubulin and Src Kinase Guided by Crystal Structure” (J Med Chem, 2021).

What was measured:
Ramos = test: Antiproliferative activity against human Ramos cells assessed as inhibition of cell proliferation measured after 72 hrs by MTT assay; type: functional, cell-based
SK-OV-3 = test: Antiproliferative activity against human SK-OV-3 cells assessed as inhibition of cell proliferation measured after 72 hrs by MTT assay; type: functional, cell-based; conditions: SK-OV-3, 72 h
K562 = test: Antiproliferative activity against human K562 cells assessed as inhibition of cell proliferation measured after 72 hrs by MTT assay; type: functional, cell-based; conditions: K562, 72 h
Tubulin = test: Binding affinity to tubulin (unknown origin) assessed as dissociation constant by tryptophan based binding assay; type: protein-complex assay, Homo sapiens
[1] = Cmax in Sprague-Dawley rat at 5 mg/kg, po measured up to 24 hrs by LC/MS/MS analysis; type: ADME, organism-based; set-up: route oral, dose 5 mg/kg, time <=24; conditions: in vivo
[2] = molecular target: Focal adhesion kinase 1 (Homo sapiens) (UniProt Q05397); test: Inhibition of FAK phosphorylation at […] residue in human SK-OV-3 cells incubated for 24 hrs by Western blot analysis; type: cell-based
[3] = Half life in human liver microsomes; type: ADME, Microsome
[4] = Tmax in Sprague-Dawley rat at 5 mg/kg, po measured up to 24 hrs by LC/MS/MS analysis; type: ADME, organism-based; conditions: in vivo
[5] = AUC (0 to t) in Sprague-Dawley rat at 5 mg/kg, po measured up to 24 hrs by LC/MS/MS analysis; type: ADME, organism-based; set-up: route oral, dose 5 mg/kg, time <=24; conditions: in vivo
[6] = Antitumor activity against mouse C26 cells xenografted in BALB/c mouse assessed as tumor growth inhibition at 10 mg/kg, po measured every 2 days for 10 days by vernier caliper analysis relative to control; type: functional; conditions: 240 h, time 10 day, read-out: TGI
[7] = Clearance in Sprague-Dawley rat at 5 mg/kg, po measured up to 24 hrs by LC/MS/MS analysis; type: ADME, organism-based; conditions: in vivo
[8] = Half life in Sprague-Dawley rat at 5 mg/kg, po measured up to 24 hrs by LC/MS/MS analysis; type: ADME, organism-based; conditions: in vivo
[9] = molecular target: Proto-oncogene tyrosine-protein kinase Src (Homo sapiens) (UniProt P12931); test: Inhibition of Src kinase phosphorylation at Tyr416/419 residue in human SK-OV-3 cells incubated for 24 hrs by Western blot analysis; type: cell-based
[10] = Intrinsic clearance in human liver microsomes; type: ADME, Microsome
[11] = Oral bioavailability in Sprague-Dawley rat at 5 mg/kg measured up to 24 hrs by LC/MS/MS analysis; type: ADME, organism-based; conditions: in vivo
[12] = Toxicity in C57 mouse at 40 mg/kg, po administered twice daily; type: organism-based; conditions: in vivo

Focal adhesion kinase 1 (Homo sapiens), sequence (Q05397 2-1052 limits assumed): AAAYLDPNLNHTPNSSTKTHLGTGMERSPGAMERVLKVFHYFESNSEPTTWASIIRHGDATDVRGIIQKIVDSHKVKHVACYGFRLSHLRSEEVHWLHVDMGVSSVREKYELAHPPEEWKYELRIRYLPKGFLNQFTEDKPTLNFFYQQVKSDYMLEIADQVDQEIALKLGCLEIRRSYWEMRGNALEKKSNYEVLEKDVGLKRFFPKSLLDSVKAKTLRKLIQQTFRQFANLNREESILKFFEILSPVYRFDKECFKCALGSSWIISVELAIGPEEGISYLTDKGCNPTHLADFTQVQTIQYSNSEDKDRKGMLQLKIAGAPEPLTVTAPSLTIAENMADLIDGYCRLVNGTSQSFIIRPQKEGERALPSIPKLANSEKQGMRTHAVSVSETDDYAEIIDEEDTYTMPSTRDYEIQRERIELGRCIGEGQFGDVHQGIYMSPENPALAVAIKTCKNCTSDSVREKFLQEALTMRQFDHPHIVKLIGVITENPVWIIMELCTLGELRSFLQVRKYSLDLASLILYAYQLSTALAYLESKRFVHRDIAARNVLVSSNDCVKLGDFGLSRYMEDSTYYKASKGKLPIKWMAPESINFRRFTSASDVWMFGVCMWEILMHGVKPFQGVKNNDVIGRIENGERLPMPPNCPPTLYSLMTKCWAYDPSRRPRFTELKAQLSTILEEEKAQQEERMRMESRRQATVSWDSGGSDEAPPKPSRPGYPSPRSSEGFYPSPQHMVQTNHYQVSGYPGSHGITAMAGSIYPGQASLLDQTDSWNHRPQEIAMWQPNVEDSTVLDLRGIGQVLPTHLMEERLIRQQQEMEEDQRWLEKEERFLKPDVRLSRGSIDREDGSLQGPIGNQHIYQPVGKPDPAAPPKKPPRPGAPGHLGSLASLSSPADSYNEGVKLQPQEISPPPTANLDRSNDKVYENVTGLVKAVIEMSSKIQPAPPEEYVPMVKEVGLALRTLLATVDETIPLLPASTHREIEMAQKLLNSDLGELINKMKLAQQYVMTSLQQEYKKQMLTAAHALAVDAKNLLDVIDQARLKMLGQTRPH
Proto-oncogene tyrosine-protein kinase Src (Homo sapiens), sequence (P12931 2-536 limits assumed): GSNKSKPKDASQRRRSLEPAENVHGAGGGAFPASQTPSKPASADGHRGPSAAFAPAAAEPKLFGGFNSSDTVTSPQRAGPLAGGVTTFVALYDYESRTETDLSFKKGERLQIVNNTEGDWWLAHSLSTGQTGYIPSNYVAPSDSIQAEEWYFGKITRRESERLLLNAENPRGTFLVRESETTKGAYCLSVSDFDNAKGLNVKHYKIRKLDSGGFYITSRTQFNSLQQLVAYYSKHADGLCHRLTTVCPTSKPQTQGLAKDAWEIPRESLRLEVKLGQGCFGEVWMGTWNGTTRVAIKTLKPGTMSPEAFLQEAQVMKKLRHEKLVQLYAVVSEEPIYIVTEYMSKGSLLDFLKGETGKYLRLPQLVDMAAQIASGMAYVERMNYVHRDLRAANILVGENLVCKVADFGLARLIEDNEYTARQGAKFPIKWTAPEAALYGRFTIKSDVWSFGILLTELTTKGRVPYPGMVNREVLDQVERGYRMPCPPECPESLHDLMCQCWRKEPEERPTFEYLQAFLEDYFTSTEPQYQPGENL

Row | Structure (SMILES) | IC50 (Ramos) | IC50 (SK-OV-3) | IC50 (K562) | other results
1 | O=C(Cc1ccc(-c2ccc(OCCCCN3CCOCC3)cc2)cn1)NCc1ccccc1 | 43.5 nM | 10.4 nM | 29.6 nM | –
2 | O=C(Cc1ccc(-c2ccc(OCCN3CCN(C(=O)C4CCC4)CC3)cc2)cn1)NCc1ccccc1 | 1.5 nM | 0.59 nM | 2.3 nM | Kd (Tubulin): 630 nM; Cmax [1]: 484 ng/mL; inhibition [2]: Dose-Dependent Effect; half-life [3]: 20.6 min; Tmax [4]: 8.4 min; AUC(0-t) at 24 h [5]: 383 ng·h/mL; inhibition in vivo at 10 mg/kg [6]: 32%; CL/F [7]: 209 mL/min/kg; half-life [8]: 139 min; inhibition [9]: Dose-Dependent Effect; CLH [10]: 67.4 mL·min/g; bioavailability [11]: 13.3%; Activity [12]: Non-Toxic
3 | COC1CCN(CCOc2ccc(-c3ccc(CC(=O)NCc4ccccc4)nc3)cc2)CC1 | 15.8 nM | 8.1 nM | 13 nM | –
4 | O=C(Cc1ccc(-c2ccc(OCCCCN3C[C@@H]4C[C@H]3CO4)cc2)cn1)NCc1ccccc1 | 25 nM | 37 nM | 53.2 nM | –
5 | O=C(Cc1ccc(-c2ccc(OCCN3CCC4(CC3)OCCO4)cc2)cn1)NCc1ccccc1 | 23.8 nM | 6.7 nM | 16.5 nM | –
6 | CC1(C)C2CN(CCOc3ccc(-c4ccc(CC(=O)NCc5ccccc5)nc4)cc3)CC21 (configuration not stated) | 64.4 nM | 165 nM | 41.5 nM | –
7 | O=C(Cc1ccc(-c2ccc(OCCN3CCN(S(=O)(=O)C4CC4)CC3)cc2)cn1)NCc1ccccc1 | 4.1 nM | 2.4 nM | 5.8 nM | –
8 | O=C(Cc1ccc(-c2ccc(OCCN3CCC4(CC3)CC4)cc2)cn1)NCc1ccccc1 | > 100 nM | 97.5 nM | 34.1 nM | –
9 | O=C(Cc1ccc(-c2ccc(OCCN3CCN(C(=O)[C@H]4C[C@@H]4F)CC3)cc2)cn1)NCc1ccccc1 | 25.7 nM | 12.6 nM | 29.4 nM | –
10 | CC(C)(C)OC(=O)N1CCN(CCOc2ccc(-c3ccc(CC(=O)NCc4ccccc4)nc3)cc2)CC1 | 15.9 nM | 53.3 nM | > 100 nM | –
11 | CC(C)(C)N1CCN(CCOc2ccc(-c3ccc(CC(=O)NCc4ccccc4)nc3)cc2)CC1 | 43.3 nM | 119 nM | > 100 nM | –
12 | O=C(Cc1ccc(-c2ccc(OCCN3CCN(C(=O)C4CC4(F)F)CC3)cc2)cn1)NCc1ccccc1 (configuration not stated) | 48.1 nM | 16.8 nM | 53.5 nM | –
13 | CC(=O)N1CCN(CCOc2ccc(-c3ccc(CC(=O)NCc4ccccc4)nc3)cc2)CC1 | 7.3 nM | 4 nM | 14.4 nM | –
